{
  "source": "patent US9255071B2",
  "about": "“Compounds having antibacterial activity, process for their preparation and pharmaceutical compositions comprising them” (Consejo Nacional de Investigaciones Cientificas y Técnicas …, priority 2012, dated 2016)",
  "key": {"Mycobacterium smegmatis": {"tested_on": "Mycobacterium smegmatis", "assay": "Determination of the Minimum Inhibitory Concentration, M. smegmatis", "format": "cell-based", "conditions": "Mycolicibacterium smegmatis, ATCC607; M. smegmatis (ATCC 607), 72 h incubation, 1×10^5 CFU/ml inoculum", "experimental": "(§1) The Minimum Inhibitory Concentration (MIC), which is defined as the lowest antimicrobial agent concentration inhibiting the visible growth of a microorganism following its incubation, was subsequently determined.\n(§2) For the purpose of such determination, the compounds under study were tested on the strains listed in Table 3 with the antibiotics (AB) stated as reference in the table.\n(§3) The test was conducted on a plate on the basis of a 1×10^5 CFU/ml inoculum concentration, with negative, positive and sterility controls being simultaneously performed. Different concentrations of the compounds under study were tested, as shown on the last column included in Table 3 (working solution).\n(§4) Following incubation at 32.5±2.5° C. for a 24 h period (48 h in the case of C. sporogenes and 72 h in the case of M. smegmatis), the plates were visually read. The appearance of turbidity and/or the formation of a growth point at the microtube bottom were held as a positive result."}, "Streptococcus pneumoniae [1]": {"tested_on": "Streptococcus pneumoniae", "conditions": "Streptococcus pneumoniae ATCC 10015; reference antibiotic according to WHONET; cited from earlier work"}, "Clostridium sporogenes": {"tested_on": "Clostridium sporogenes", "assay": "Determination of the Minimum Inhibitory Concentration, C. sporogenes", "format": "cell-based", "conditions": "ATCC19404, C. sporogenes (ATCC 19404), 48 h incubation, 1×10^5 CFU/ml inoculum", "experimental": "as §1, §2, §3, §4"}, "Acinetobacter guillouiae": {"tested_on": "Acinetobacter guillouiae", "conditions": "Acinetobacter guillouiae ATCC 11171; reference antibiotic according to WHONET; in µg/mL; cited from earlier work"}, "Shigella boydii [2]": {"tested_on": "Shigella boydii", "set-up": "unit not given beside the values", "conditions": "Shigella boydii ATCC 12027; reference antibiotic according to WHONET; cited from earlier work"}, "Shigella flexneri [3]": {"tested_on": "Shigella flexneri", "set-up": "unit not given beside the values", "conditions": "Shigella flexneri ATCC 11836; reference antibiotic according to WHONET; cited from earlier work"}, "Shigella boydii [4]": {"tested_on": "Shigella boydii", "assay": "Determination of the Minimum Inhibitory Concentration, S. boydii", "format": "cell-based", "conditions": "ATCC12027, S. boydii (ATCC 12027), 24 h incubation, 1×10^5 CFU/ml inoculum", "experimental": "as §1, §2, §3, §4"}, "Shigella flexneri [5]": {"tested_on": "Shigella flexneri", "assay": "Determination of the Minimum Inhibitory Concentration, S. flexneri", "format": "cell-based", "conditions": "ATCC11836, S. flexneri (ATCC 11836), 24 h incubation, 1×10^5 CFU/ml inoculum", "experimental": "as §1, §2, §3, §4"}, "Streptococcus pneumoniae [6]": {"tested_on": "Streptococcus pneumoniae", "assay": "Determination of the Minimum Inhibitory Concentration, S. pneumoniae", "format": "cell-based", "conditions": "ATCC10015, S. pneumoniae (ATCC 10015), 24 h incubation, 1×10^5 CFU/ml inoculum", "experimental": "as §1, §2, §3, §4"}, "Enterococcus faecalis": {"tested_on": "Enterococcus faecalis", "conditions": "Enterococcus faecalis ATCC 29212; reference antibiotic according to WHONET; in µg/mL; cited from earlier work"}, "Staphylococcus Aureus": {"tested_on": "Staphylococcus Aureus", "conditions": "Staphylococcus Aureus ATCC 29737; reference antibiotic according to WHONET; in µg/mL; cited from earlier work"}},
  "data": [
    {"smiles": "COc1ccc(C=CC(=O)N2CCN(C(=O)C=Cc3ccc(OC)c(C(F)F)c3)CC2)cc1C(F)F", "note": "[Example 6, N,N′-bis[3-(difluoromethyl)-4-methoxy-cinnamoyl]piperazine]", "values": [
      {"measurement": "melting point", "value": "259 to 261", "unit": "°C"}
    ]},
    {"smiles": "COc1ccc(/C=C/C(=O)NC(C)C)cc1C(F)F", "note": "[compound 2]", "values": [
      {"measurement": "MIC", "setting": "Mycobacterium smegmatis", "value": 8, "unit": "mg/L"}
    ]},
    {"smiles": "CC1(C)S[C@@H]2[C@H](NC(=O)[C@H](N)c3ccccc3)C(=O)N2[C@H]1C(=O)O", "note": "[Ampicillin (sodium), Ampicillin]", "values": [
      {"measurement": "MIC (for WHO antibiotics)", "setting": "Streptococcus pneumoniae [1]", "value": "≦0.5"}
    ]},
    {"smiles": "COc1ccc(/C=C/C(=O)NNC(=O)c2ccncc2)cc1C(F)F", "note": "[compound 4]", "values": [
      {"measurement": "MIC", "setting": "Mycobacterium smegmatis", "value": 64, "unit": "mg/L"},
      {"measurement": "MIC", "setting": "Clostridium sporogenes", "value": 64, "unit": "mg/L"}
    ]},
    {"smiles": "CN(C)c1ccc(O)c2c1C[C@H]1C[C@H]3[C@H](N(C)C)C(O)=C(C(N)=O)C(=O)[C@@]3(O)C(O)=C1C2=O", "note": "[Minocyclin]", "values": [
      {"measurement": "MIC (for WHO antibiotics)", "setting": "Acinetobacter guillouiae", "value": "0.06-8.0"}
    ]},
    {"smiles": "COc1ccc(/C=C/C(=O)NCC(C)C)cc1C(F)F", "note": "[compound 5]", "values": [
      {"measurement": "MIC", "setting": "Mycobacterium smegmatis", "value": 32, "unit": "mg/L"}
    ]},
    {"smiles": "CC(=O)Oc1ccc(/C=C/C(=O)NC(C)C)cc1C(F)F", "note": "[entry 3]", "values": [
      {"measurement": "MIC", "setting": "Mycobacterium smegmatis", "value": 64, "unit": "mg/L"}
    ]},
    {"smiles": "COc1ccc(/C=C/C(=O)NC(C)C)cc1C", "note": "[compound 9]", "values": [
      {"measurement": "MIC", "setting": "Mycobacterium smegmatis", "value": 32, "unit": "mg/L"}
    ]},
    {"smiles": "C[C@@H]1O[C@@H]1P(=O)(O)O", "note": "[Phosphomycin]", "values": [
      {"measurement": "MIC (for WHO antibiotics)", "setting": "Shigella boydii [2]", "value": "≦4.0"},
      {"measurement": "MIC (for WHO antibiotics)", "setting": "Shigella flexneri [3]", "value": "≦4.0"}
    ]},
    {"smiles": "COc1ccc(/C=C/C(=O)NC(C)C)cc1O", "note": "[compound 10]", "values": [
      {"measurement": "MIC", "setting": "Shigella boydii [4]", "value": 32, "unit": "mg/L"},
      {"measurement": "MIC", "setting": "Shigella flexneri [5]", "value": 32, "unit": "mg/L"}
    ]},
    {"smiles": "COc1ccc(/C=C/C(=O)NCCC(C)C)cc1C(F)F", "note": "[compound 6]", "values": [
      {"measurement": "MIC", "setting": "Streptococcus pneumoniae [6]", "value": 64, "unit": "mg/L"},
      {"measurement": "MIC", "setting": "Mycobacterium smegmatis", "value": 8, "unit": "mg/L"}
    ]},
    {"smiles": "COc1ccc(/C=C/C(=O)Nc2ccccc2)cc1C(F)F", "note": "[compound 1]", "values": [
      {"measurement": "MIC", "setting": "Mycobacterium smegmatis", "value": 64, "unit": "mg/L"}
    ]},
    {"smiles": "COc1ccc(/C=C/C(=O)NCCCNC(=O)/C=C/c2ccc(OC)c(C(F)F)c2)cc1C(F)F", "note": "[compound 7]", "values": [
      {"measurement": "MIC", "setting": "Streptococcus pneumoniae [6]", "value": 64, "unit": "mg/L"}
    ]},
    {"smiles": "CN[C@H](CC(C)C)C(=O)N[C@H]1C(=O)N[C@@H](CC(N)=O)C(=O)N[C@H]2C(=O)N[C@H]3C(=O)N[C@H](C(=O)N[C@H](C(=O)O)c4cc(O)cc(O)c4-c4cc3ccc4O)[C@H](O)c3ccc(c(Cl)c3)Oc3cc2cc(c3O[C@@H]2O[C@H](CO)[C@@H](O)[C@H](O)[C@H]2O[C@H]2C[C@](C)(N)[C@H](O)[C@H](C)O2)Oc2ccc(cc2Cl)[C@H]1O", "note": "[Vancomycin]", "values": [
      {"measurement": "MIC (for WHO antibiotics)", "setting": "Enterococcus faecalis", "value": "1.0-4.0"},
      {"measurement": "MIC (for WHO antibiotics)", "setting": "Staphylococcus Aureus", "value": "0.5-2.0"}
    ]},
    {"smiles": "COc1ccc(C=CC(=O)N2CCOCC2)cc1C(F)F", "note": "[Example 12, N-[3-(difluoromethyl)-4-methoxy-cinnamoyl]morpholine]", "values": [
      {"measurement": "melting point", "value": 119, "unit": "°C"}
    ]},
    {"smiles": "COc1ccc(/C=C/C(=O)NC(C)C)cc1", "note": "[compound 8]", "values": [
      {"measurement": "MIC", "setting": "Mycobacterium smegmatis", "value": 32, "unit": "mg/L"}
    ]}
  ]
}
